The target of assay [1] is T1, E1p/E2p-PSBD complex (pyruvate dehydrogenase E1 subunit with E2p peripheral subunit binding domain) (Geobacillus stearothermophilus, UniProt P21873+P21874).
T1 construct: gene pdhA; alpha2beta2 heterotetramer with one E2p PSBD; recombinant in E. coli TG1 recO (plasmids pKBstE1a, pKBstE1b); he-3-deazaThDP crystals grown with E2p di-domain (lipoyl domain-linker-PSBD); with Dihydrolipoyllysine-residue acetyltransferase component of pyruvate dehydrogenase complex
Nature of the assay: X-ray crystal structure, […] A.

For assay [2], the target named is T2, E1p/E2p-PSBD complex (pyruvate dehydrogenase E1 subunit with E2p peripheral subunit binding domain) (Geobacillus stearothermophilus, UniProt P21873+P21874, P21873:I207A).
T2 construct: gene pdhA; alpha2beta2 heterotetramer with one E2p PSBD; recombinant in E. coli TG1 recO (plasmids pKBstE1a, pKBstE1b); he-3-deazaThDP crystals grown with E2p di-domain (lipoyl domain-linker-PSBD); with Dihydrolipoyllysine-residue acetyltransferase component of pyruvate dehydrogenase complex
Description: X-ray crystal structure, […] A. The following applies: 5 mM 3-deazaThDP; crystals at pH 5.0; ThDP site.

Structures are written as SMILES.

With `Cc1ncc(Cc2csc(CCOP(=O)(O)OP(=O)(O)O)c2C)c(N)n1` [3-deazaThDP], the “X-ray crystal structure, 2.3 A” value in assay [1] (Mg2+, pyruvate soaked in, ThDP site) was “we have solved the structure of the E1p/E2p-PSBD complex with bound 3-deazaThDP and pyruvate”. The “X-ray crystal structure, 2.35 A” value in assay [2] is “crystal structure of the complex of 3-deazaThDP with the G. stearothermophilus E1p I206Aα mutant”.

Turning to `CC(=O)C(=O)O` [pyruvate], in assay [1] (10 mM pyruvate soak 1 week into 3-deazaThDP crystals, density in two of four sites, orientation not definitive), the “X-ray crystal structure, 2.3 A” value is given as “density in the active-site pocket that is likely to be due to pyruvate binding”.

The values above are taken from publication PMC2663715, “Snapshots of Catalysis in the E1 Subunit of the Pyruvate Dehydrogenase Multienzyme Complex” (Structure(London, England:1993), 2008).
